Assay results from patent US9096598B2 (Merck Sharp & Dohme Corp., priority 2011, dated 2015).

Columns and labels:
JAK2 = target: T1, JAK2 (Homo sapiens, UniProt O60674); test: Jak Biochemical HTRF Assay (JAK2); conditions: recombinant purified GST-tagged catalytic domain, [ATP] 8.5 μM, values given as range classes
T1 construct: recombinant purified GST-tagged catalytic domain for each enzyme; purchased Invitrogen M4290
Summary of the method: (§1)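 GST-tagged recombinant catalytic domain and biotinylated peptide substrate were preincubated with compound for 30 min at room temperature in kinase buffer with 2 mM DTT and 0.05% BSA. ATP then started a 120 min reaction. Phosphopeptide was detected by HTRF (Eu-pY20/streptavidin-Dylight 650, 665/615 nm ratio), and IC50 came from a 4-parameter fit of percent inhibition.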

JAK3 = target: T2, JAK3 (Homo sapiens, UniProt P52333); test: Jak Biochemical HTRF Assay (JAK3); conditions: recombinant purified GST-tagged catalytic domain, [ATP] 2.9 μM, values given as range classes
T2 construct: recombinant purified GST-tagged catalytic domain for each enzyme; purchased Invitrogen M4290
T2 sequence (P52333 822-1111 limits assumed): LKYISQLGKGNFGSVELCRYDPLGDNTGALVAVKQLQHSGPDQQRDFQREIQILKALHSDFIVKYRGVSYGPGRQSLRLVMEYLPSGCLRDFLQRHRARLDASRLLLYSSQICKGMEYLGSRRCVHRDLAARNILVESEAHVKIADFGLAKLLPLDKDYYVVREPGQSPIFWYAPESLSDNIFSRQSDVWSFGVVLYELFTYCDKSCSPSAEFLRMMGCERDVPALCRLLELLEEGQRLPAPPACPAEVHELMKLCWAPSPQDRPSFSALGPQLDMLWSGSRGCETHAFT
Summary of the method: as §1

T1 sequence (O60674 849-1124 limits assumed): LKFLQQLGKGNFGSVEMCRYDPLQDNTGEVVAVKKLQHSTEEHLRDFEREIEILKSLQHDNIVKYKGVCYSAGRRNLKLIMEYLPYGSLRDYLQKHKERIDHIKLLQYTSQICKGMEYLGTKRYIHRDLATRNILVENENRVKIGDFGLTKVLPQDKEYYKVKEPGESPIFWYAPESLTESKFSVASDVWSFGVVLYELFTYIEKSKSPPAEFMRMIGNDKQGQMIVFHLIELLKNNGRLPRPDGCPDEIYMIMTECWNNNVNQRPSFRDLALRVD

CC1c2ncc(C(F)(F)F)n2CCN1c1cnnc(-c2c[nH]c3ncc(Cl)cc23)n1 (centres unmarked) [Example 1-4, 7-[3-(5-chloro-1H-pyrrolo[2,3-b]pyridin-3-yl)-1,2,4-triazin-5-yl]-8-methyl-3-(trifluoromethyl)-5,6,7,8-tetrahydroimidazo[1,2-a]pyrazine]
IC50 (JAK2): 10 to 500 nM
IC50 (JAK3): ≤ 10 nM

N#Cc1cnc2[nH]cc(-c3cncc(N[C@@H]4CCCC[C@@H]4C(=O)NCC(F)(F)F)c3)c2c1 [Example 1-38, (1S,2R)-2-{[5-(5-cyano-1H-pyrrolo[2,3-b]pyridin-3-yl)pyridin-3-yl]amino}-N-(2,2,2-trifluoroethyl)cyclohexane-carboxamide]
IC50 (JAK2): 10 to 500 nM
IC50 (JAK3): ≤ 10 nM

COCc1cnc2[nH]cc(-c3nncc(N[C@@H](C(=O)NCC(F)(F)F)C(C)C)n3)c2c1 [Example 9-8, N~2~-{3-[5-(methoxymethyl)-1H-pyrrolo[2,3-b]pyridin-3-yl]-1,2,4-triazin-5-yl}-N-(2,2,2-trifluoroethyl)-D-valinamide]
IC50 (JAK2): 10 to 500 nM
IC50 (JAK3): 10 to 500 nM

NC(=O)c1cnc2[nH]cc(-c3cncc(N[C@@H]4CCCC[C@@H]4C(=O)NCC(F)(F)F)c3)c2c1 [Example 1-40, 3-[5-({(1R,2S)-2-[(2,2,2-trifluoroethyl)carbamoyl]cyclo-hexyl}amino)pyridin-3-yl]-1H-pyrrolo[2,3-b]pyridine-5-carboxamide]
IC50 (JAK2): ≤ 10 nM
IC50 (JAK3): ≤ 10 nM

CC(C)(Nc1cnnc(-c2c[nH]c3ncc(F)cc23)n1)C(=O)NCC(F)(F)F [Example 1-6, N~2~-[3-(5-fluoro-1H-pyrrolo[2,3-b]pyridin-3-yl)-1,2,4-triazin-5-yl]-2-methyl-N-(2,2,2-trifluoroethyl)alaninamide]
IC50 (JAK2): 10 to 500 nM
IC50 (JAK3): ≤ 10 nM

CC(C)C(Nc1cncc(-c2c[nH]c3ncc(-c4cnn(C)c4)cc23)c1)C(=O)NCC(F)(F)F (racemic) [Example 8-1, N^2-{5-[5-(1-methyl-1H-pyrazol-4-yl)-1H-pyrrolo[2,3-b]pyridin-3-yl]pyridin-3-yl}-N-(2,2,2-trifluoroethyl)valinamide]
IC50 (JAK2): ≤ 10 nM
IC50 (JAK3): ≤ 10 nM

CC1c2ncc(C(F)(F)F)n2CCN1c1cnnc(-c2c[nH]c3ncc(F)cc23)n1 (centres unmarked) [Example 1-10, 7-[3-(5-fluoro-1H-pyrrolo[2,3-b]pyridin-3-yl)-1,2,4-triazin-5-yl]-8-methyl-3-(trifluoromethyl)-5,6,7,8-tetrahydroimidazo[1,2-a]pyrazine]
IC50 (JAK2): 10 to 500 nM
IC50 (JAK3): 10 to 500 nM

C[C@@H](Nc1cnnc(-c2c[nH]c3ncc(C(F)(F)F)cc23)c1)C(=O)NCC(F)(F)F [Example 1-25, N-(2,2,2-trifluoroethyl)-N~2~-{6-[5-(trifluoromethyl)-1H-pyrrolo[2,3-b]pyridin-3-yl]pyridazin-4-yl}-D-alaninamide]
IC50 (JAK2): 10 to 500 nM
IC50 (JAK3): ≤ 10 nM

CC(C)[C@H](Nc1cncc(-c2c[nH]c3ncc(OCCN(C)C)cc23)c1)C(=O)NCC(F)(F)F [Example 2-13, N~2~-(5-{5-[2-(dimethylamino)ethoxy]-1H-pyrrolo[2,3-b]pyridin-3-yl}pyridin-3-yl)-N-(2,2,2-trifluoroethyl)valinamide]
IC50 (JAK2): > 500 nM
IC50 (JAK3): 10 to 500 nM

C[C@@H](Nc1cnnc(-c2c[nH]c3ncc(F)cc23)n1)C(=O)NCC(F)(F)F [Example 1-8, N~2~-[3-(5-fluoro-1H-pyrrolo[2,3-b]pyridin-3-yl)-1,2,4-triazin-5-yl]-N-(2,2,2-trifluoroethyl)-D-alaninamide]
IC50 (JAK2): 10 to 500 nM
IC50 (JAK3): 10 to 500 nM

CC(C)[C@H](Nc1cncc(-c2c[nH]c3ncc(Cl)cc23)c1)C(=O)NCC(F)(F)F [Example 1-52, N-18 2~-[5-(5-chloro-1H-pyrrolo[2,3-b]pyridin-3-yl)pyridin-3-yl]-N-(2,2,2-trifluoroethyl)-L-valinamide]
IC50 (JAK2): 10 to 500 nM
IC50 (JAK3): ≤ 10 nM

CC(C)[C@H](Nc1cncc(-c2c[nH]c3ncc(OC4Cc5ccccc5C4)cc23)c1)C(=O)NCC(F)(F)F [Example 2-8, N~2~-{5-[5-(2,3-dihydro-1H-inden-2-yloxy)-1H-pyrrolo[2,3-b]pyridin-3-yl]pyridin-3-yl}-N-(2,2,2-trifluoroethyl)valinamide]
IC50 (JAK2): 10 to 500 nM
IC50 (JAK3): ≤ 10 nM

O=C(NCC(F)(F)F)[C@H]1CCCC[C@H]1Nc1cncc(-c2c[nH]c3ncc(Cl)cc23)c1 [Example 1-33, (1S,2R)-2-{[5-(5-chloro-1H-pyrrolo[2,3-b]pyridin-3-yl)pyridin-3-yl]amino}-N-(2,2,2-trifluoroethyl)cyclohexane-carboxamide]
IC50 (JAK2): 10 to 500 nM
IC50 (JAK3): ≤ 10 nM

COCCOc1cnc2[nH]cc(-c3cncc(NC(C(=O)NCC(F)(F)F)C(C)C)c3)c2c1 (centres unmarked) [Example 2-2]
IC50 (JAK2): 10 to 500 nM
IC50 (JAK3): ≤ 10 nM

Clc1cnc2[nH]cc(-c3cncc(N4CCCC4c4nccs4)c3)c2c1 (centres unmarked) [Example 1-28, 5-chloro-3-{5-[2-(1,3-thiazol-2-yl)pyrrolidin-1-yl]pyridin-3-yl}-1H-pyrrolo[2,3-b]pyridine]
IC50 (JAK2): 10 to 500 nM
IC50 (JAK3): ≤ 10 nM

CC(C)(Nc1cncc(-c2c[nH]c3ncc(F)cc23)c1)C(=O)NCC(F)(F)F [Example 1-43, N~2~-[5-(5-fluoro-1H-pyrrolo[2,3-b]pyridin-3-yl)pyridin-3-yl]-2-methyl-N-(2,2,2-trifluoroethyl)alaninamide]
IC50 (JAK2): 10 to 500 nM
IC50 (JAK3): ≤ 10 nM

CC(C)[C@H](Nc1cncc(-c2c[nH]c3ncc(CNC(=O)CC(F)(F)F)cc23)c1)C(=O)NCC(F)(F)F [Example 10-10, N-(2,2,2-trifluoroethyl)-N~2~-[5-(5-{[(3,3,3-trifluoropropanoyl)amino]methyl}-1H-pyrrolo[2,3-b]pyridin-3-yl)pyridin-3-yl]valinamide]
IC50 (JAK2): > 500 nM
IC50 (JAK3): 10 to 500 nM

CC(C)[C@@H](Nc1cncc(-c2c[nH]c3ncc(NS(C)(=O)=O)cc23)c1)C(=O)NCC(F)(F)F [Example 5-5, N^2-(5-{5-[(methylsulfonyl)amino]-1H-pyrrolo[2,3-b]pyridin-3-yl}pyridin-3-yl)-N-(2,2,2-trifluoroethyl)-D-valinamide]
IC50 (JAK2): 10 to 500 nM
IC50 (JAK3): 10 to 500 nM

CC(C)C(Nc1cncc(-c2c[nH]c3ncc(CNC(=O)C4CCCCC4)cc23)c1)C(=O)NCC(F)(F)F (centres unmarked) [Example 10-3, N-({3-[5-({2-methyl-1-[(2,2,2-trifluoroethyl)carbamoyl]prop-yl}amino)pyridin-3-yl]-1H-pyrrolo[2,3-b]pyridin-5-yl}methyl)cyclohexanecar-boxamide]
IC50 (JAK2): > 500 nM
IC50 (JAK3): 10 to 500 nM

CC(C)[C@H](Nc1cncc(-c2c[nH]c3ncc(OCCN4CCN(C)CC4)cc23)c1)C(=O)NCC(F)(F)F [Example 2-17, N~2~-(5-{5-[2-(4-methylpiperazin-1-yl)ethoxy]-1H-pyrrolo[2,3-b]pyridin-3-yl}pyridin-3-yl)-N-(2,2,2-trifluoroethyl)valinamide]
IC50 (JAK2): 10 to 500 nM
IC50 (JAK3): ≤ 10 nM

CCCNC(=O)Nc1cnc2[nH]cc(-c3cncc(NC(C(=O)NCC(F)(F)F)C(C)C)c3)c2c1 (centres unmarked) [Example 6-2, N~2~-(5-{5-[(propylcarbamoyl)amino]-1H-pyrrolo[2,3-b]pylidin-3-yl}pyridin-3-yl)-N-(2,2,2-trifluoroethyl)valinamide]
IC50 (JAK2): 10 to 500 nM
IC50 (JAK3): ≤ 10 nM

COC(=O)Nc1cnc2[nH]cc(-c3cncc(NC(C(=O)NCC(F)(F)F)C(C)C)c3)c2c1 (centres unmarked) [Example 7-1, Methyl {3-[5-({3-methyl-1-oxo-1-[(2,2,2-trifluoroethyl)amino]butan-2-yl}amino)pyridin-3-yl]-1H-pyrrolo[2,3-b]pyridin-5-yl}carbamate]
IC50 (JAK2): 10 to 500 nM
IC50 (JAK3): 10 to 500 nM

COCC(=O)Nc1cnc2[nH]cc(-c3cncc(N[C@H](C(=O)NCC(F)(F)F)C(C)C)c3)c2c1 [Example 5-8, N~2~-(5-{5-[(methoxyacetyl)amino]-1H-pyrrolo[2,3-b]pyridin-3-yl}pyridin-3-yl)-N-(2,2,2-trifluoroethyl)valinamide]
IC50 (JAK2): 10 to 500 nM
IC50 (JAK3): ≤ 10 nM

CC(=O)Nc1cnc2[nH]cc(-c3cncc(N[C@H](C(=O)NCC(F)(F)F)C(C)C)c3)c2c1 [Example 5-2, N^2-{5-[5-(acetylamino)-1H-pyrrolo[2,3-b]pyridin-3-yl]pyridin-3-yl}-N-(2,2,2-trifluoroethyl)valinamide]
IC50 (JAK2): 10 to 500 nM
IC50 (JAK3): ≤ 10 nM

C[C@@H](Nc1cncc(-c2c[nH]c3ncc(F)cc23)c1)C(=O)NCC(F)(F)F [Example 1-30, N~2~-[5-(5-fluoro-1H-pyrrolo[2,3-b]pyridin-3-yl)pyridin-3-yl]-N-(2,2,2-trifluoroethyl)-D-alaninamide]
IC50 (JAK2): 10 to 500 nM
IC50 (JAK3): 10 to 500 nM

CC(C)[C@@H](Nc1cncc(-c2c[nH]c3ncc(C(=O)N(C)C(C)c4ccn[nH]4)cc23)c1)C(=O)NCC(F)(F)F (stereo partly drawn) [Example 3-11, N-methyl-3-[5-({(1R)-2-methyl-1-[(2,2,2-trifluoroethyl)carbamoyl]propyl}amino)pyridin-3-yl]-N-[1-(1H-pyrazol-5-yl)ethyl]-1H-pyrrolo[23-b]pyridine-5-carboxamide]
IC50 (JAK2): > 500 nM
IC50 (JAK3): 10 to 500 nM

COCC(C)NC(=O)c1cnc2[nH]cc(-c3cncc(N[C@@H](C(=O)NCC(F)(F)F)C(C)C)c3)c2c1 (stereo partly drawn) [Example 3-3, N-(2-methoxy-1-methylethyl)-3-[5-({(1R)-2-methyl-1-[(2,2,2-trifluoroethyl)carbamoyl]propyl}amino)pyridin-3-yl]-1H-pyrrolo[2,3-b]pyridine-5-carboxamide]
IC50 (JAK2): 10 to 500 nM
IC50 (JAK3): ≤ 10 nM

CC(CO)NC(=O)c1cnc2[nH]cc(-c3cncc(N[C@@H](C(=O)NCC(F)(F)F)C(C)C)c3)c2c1 (stereo partly drawn) [Example 3-4, N-(2-hydroxy-1-methylethyl)-3-[5-({(1R)-2-methyl-1-[(2,2,2-trifluoroethyl)carbamoyl]propyl}amino)pyridin-3-yl]-1H-pyrrolo[2,3-b]pyridine-5-carboxamide]
IC50 (JAK2): ≤ 10 nM
IC50 (JAK3): ≤ 10 nM
